Reference: patent publication US11084826B2, “RSV antiviral pyrazolo- and triazolo-pyrimidine compounds” (Janssen Sciences Ireland Unlimited Company, priority 2015, dated 2021)

Columns and labels:
[1] = system: rgRSV224 virus; assay: Antiviral activity: inhibition of rgRSV224 (GFP-expressing RSV) replication in HeLa cells, GFP expression read-out; assay type: cell-based, respiratory syncytial virus (RSV); details: human respiratory syncytial virus, HeLa, read-out: RSV HELA pEC50, rgRSV224 virus (MOI=1) in HeLa cells, GFP read-out (converted)
Procedure, shortened: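 EC50 is the 50% inhibitory concentration for GFP expression, read by laser microscopy three days after rgRSV224 infection (MOI=1) of HeLa cells (3,000/well). Compounds were tested as 9 serial 4-fold dilutions at 0.05% DMSO, and cells were incubated at 37° C under 5% CO2.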

[2] = Cytotoxicity in HeLa cells, ATP content measured with the ATPlite kit; assay type: cell-based; details: human, TOX HELA pCC50

Row | Structure (SMILES) | EC50 [1] [µM] | CC50 at 3 days [2] [µM] | melting point [°C]
1 | CCc1cc(C(=O)N2CCCCCC2C)nc2cc(-c3ccc(NC(=O)NC4CC4)cc3)nn12 (stereo not drawn) [Compound B8] | 0.24 | 17 | 240 to 245
2 | CCc1cc(C(=O)N2CCCCCC2C)nc2cc(-c3ccc(NC(=S)NCC4CCCO4)cc3F)nn12 (stereo not drawn) [Compound B13] | 0.398 | > 25.1 | 210 to 215
3 | CCc1cc(C(=O)N2CCCCCCC2C)nc2cc(-c3ccc(NC(=O)NCC4CCCO4)cc3F)nn12 (stereo not drawn) [Compound B3] | 0.0794 | > 25.1 | 195 to 200
4 | CCc1cc(C(=O)N2CCc3ccccc3[C@H]2C)nc2cc(-c3ccc(N4CC[C@H](C(=O)O)C4)cc3F)nn12 [Compound W28] | 0.00427 | 51.3 | 218.99
5 | CCc1cc(C(=O)N2CCCCC[C@H]2C)nc2cc(-c3ccc(NC(=O)C4CC4)cc3F)nn12 [Compound E10] | 0.0912 | > 25.1 | 225 to 230
6 | CCc1cc(C(=O)N2CCCCCC2C)nc2cc(-c3ccc(NC(=O)Cc4ccncc4)cc3F)nn12 (stereo not drawn) [Compound E2] | 0.0933 | > 25.1 | 195 to 200
7 | CCc1cc(C(=O)N2CCCCCC2C)nc2cc(-c3ccc4nc(C)ccc4c3)nn12 (stereo not drawn) [Compound A12] | 0.871 | > 25.1 | 195 to 200
8 | CCc1cc(C(=O)N2CCC3=C(CCCC3)C2C)nc2cc(-c3cccc(/C=C/C(=O)O)c3F)nn12 (racemic) [Compound M51] | 0.162 | 66.1 | 227.14
9 | CCCC(C)N(C)C(=O)c1cc(CC)n2nc(-c3ccc(NC(=O)NCC4CCCO4)cc3F)cc2n1 (stereo not drawn) [Compound B2] | 0.407 | > 100 | 180 to 185
10 | CCc1cc(C(=O)N2CCCCCC2C)nc2cc(-c3ccc(NC(=O)NCC4CCCO4)cc3C)nn12 (stereo not drawn) [Compound B4] | 0.257 | 55 | 123
11 | CCc1cc(C(=O)N2CCCCCC2C)nc2c(F)c(-c3ccc(C(N)=O)cc3F)nn12 (stereo not drawn) [Compound J1] | 0.148 | > 25.1 | 173
12 | CCc1cc(C(=O)N2CCCCC[C@H]2C)nc2cc(-c3ccc(-c4ncc(C(=O)O)s4)cc3F)nn12 (racemic) [Compound F43] | 0.0617 | 42.7 | 177.53
13 | CCc1cc(C(=O)N2CCCCCC2C)nc2cc(-c3ccc(/C=C/C(=O)O)cc3F)nn12 (stereo not drawn) [Compound M1] | 0.174 | > 25.1 | 205 to 210
14 | CC1c2ccsc2CCN1C(=O)c1cc(C2(C)CC2)n2nc(-c3ccc(-n4cc(C(=O)O)cn4)cc3F)cc2n1 (racemic) [Compound W39] | 0.0282 | 55 | 265.13
15 | CCc1cc(C(=O)N2CCCCCC2C)nc2cc(-c3ccc(NC(=O)CCC(=O)NC)cc3F)nn12 (stereo not drawn) [Compound E27] | 0.117 | > 25.1 | 215 to 220
16 | C[C@@H]1CCCCCN1C(=O)c1cc(C2CC2)n2nc(-c3ccc(N4CC[C@H](C(=O)O)C4)cc3F)cc2n1 [Compound W51] | 0.0389 | 69.2 | 203.3
17 | CNc1cc(C(=O)N2CCCCCC2C)nc2cc(-c3ccc(C(N)=O)cc3F)nn12 (stereo not drawn) [Compound I29] | 0.295 | > 25.1 | 179 to 181
18 | CCc1cc(C(=O)N2CCCCC[C@H]2C)nc2cc(-c3ccc(N4CC[C@H](C(=O)O)C4)cc3F)nn12 [Compound W7] | 0.0479 | 70.8 | 205.8

Row | Structure (SMILES) | EC50 [1] [µM] | CC50 at 3 days [2] [µM] | melting point [°C]
19 | CCc1cc(C(=O)N2CCCCCC2C)nc2cc(-c3cccs3)nn12 (stereo not drawn) [Compound A1] | 5.01 | > 50.1 | 110 to 120
20 | CCc1cc(C(=O)N2CCCC[C@H]2C)nc2cc(-c3ccc(C(N)=O)cc3)nn12 [Compound A27] | 0.871 | > 25.1 | 160 to 165
21 | CCc1cc(C(=O)N2CCCCCC2C)nc2cc(-c3ccc(C(=O)NO)cc3F)nn12 (stereo not drawn) [Compound L6] | 0.148 | 20.4 | 180
22 | C[C@@H]1CCCCCN1C(=O)c1cc(C2CCC2)n2nc(-c3ccc4c(c3F)OCC(C(=O)O)=C4)cc2n1 [Compound F39] | 0.0389 | 44.7 | 230.94
23 | CCc1cc(C(=O)N2CCCCCC2C)nc2cc(-c3ccc(S(=O)(=O)NC)cc3F)nn12 (stereo not drawn) [Compound P3] | 0.692 | > 25.1 | 116
24 | CCc1cc(C(=O)N2CCCCCC2C)nc2cc(-c3ccc(NC(=O)NCC4CC4)cc3)nn12 (stereo not drawn) [Compound B9] | 0.501 | > 100 | 165 to 170
25 | CCc1cc(C(=O)N2CCCCCC2C)nc2cc(-c3ccc(-c4ccn[nH]4)cc3F)nn12 (stereo not drawn) [Compound F5] | 0.309 | > 25.1 | 75 to 76
26 | CCc1cc(C(=O)N2CCCCC[C@H]2C)nc2cc(-c3ccc(N(C)[C@H]4C[C@@H](C(=O)O)C4)cc3F)nn12 (racemic) [Compound W23] | 0.0759 | 79.4 | 182.69
27 | CC(C)Cc1cc(C(=O)N2CCCCC[C@H]2C)nc2cc(-c3cccc(/C=C/C(=O)O)c3F)nn12 [Compound M29] | 0.0389 | 67.6 | 176
28 | CCc1cc(C(=O)N2CCCCCC2C)nc2cc(-c3csc(NC(=O)C4CC4)n3)nn12 (stereo not drawn) [Compound E30] | 1.82 | > 25.1 | 277 to 279
29 | CCc1cc(C(=O)N2CCCCC[C@H]2C)nc2cc(-c3ccc(N4CC[C@@H](C(=O)O)C4)cc3F)nn12 [Compound W6] | 0.0813 | 69.2 | 214.84
30 | CCc1cc(C(=O)N2CCCCCC2C)nc2cc(-c3ccc4c(c3)ncn4C)nn12 (stereo not drawn) [Compound A14] | 0.398 | > 25.1 | 115
31 | CCc1cc(C(=O)N2CCCCCC2C)nc2cc(-c3ccc(C(=O)NC4CC4)cc3F)nn12 (stereo not drawn) [Compound L1] | 0.129 | > 25.1 | 196
32 | CCc1cc(C(=O)N2CCCCCC2C)nc2cc(-c3ccc(C(=O)NCc4cccs4)cc3F)nn12 (stereo not drawn) [Compound L8] | 0.324 | > 25.1 | 156
33 | CCc1cc(C(=O)N2CCCCCC2C)nc2cc(-c3ccc4[nH]cnc4c3)nn12 (stereo not drawn) [Compound A13] | 0.331 | > 25.1 | 145 to 150
34 | C[C@@H]1CCCCCN1C(=O)c1cc(C2CCC2)n2nc(-c3ccc4cc(C(=O)O)c(=O)oc4c3F)cc2n1 (racemic) [Compound F53] | 0.0363 | 60.3 | 175.52
35 | CCc1cc(C(=O)N2CCCCCC2C)nc2cc(-c3ccc(CCC(N)=O)cc3F)nn12 (stereo not drawn) [Compound R1] | 0.251 | > 25.1 | 95 to 100
36 | CCCC(C)N(C)C(=O)c1cc(CC)n2nc(-c3ccc(C(N)=O)cc3)cc2n1 (stereo not drawn) [Compound A28] | 0.794 | > 25.1 | 140 to 145
